Data published in ChEMBL document CHEMBL1201862, “PubChem BioAssay data set” (2004).
Calls of active or inactive are those of the source.

Tests used:
[1] = cells
[2] = target: T1, Oxysterols receptor LXR-beta (Homo sapiens, UniProt P55055); assay type: functional, cell-based;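 note: Cell-based luminescence dose-response assay of agonist activity at LXR, run as a confirmatory counterscreen to a daf-12 agonist screen; HEK293 cells with Gal4-LXR fusion and GAL4-driven luciferase reporter; agonist potency from rising luciferase signal of a Gal4-LXR reporter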
T1 sequence (P55055 whole entry): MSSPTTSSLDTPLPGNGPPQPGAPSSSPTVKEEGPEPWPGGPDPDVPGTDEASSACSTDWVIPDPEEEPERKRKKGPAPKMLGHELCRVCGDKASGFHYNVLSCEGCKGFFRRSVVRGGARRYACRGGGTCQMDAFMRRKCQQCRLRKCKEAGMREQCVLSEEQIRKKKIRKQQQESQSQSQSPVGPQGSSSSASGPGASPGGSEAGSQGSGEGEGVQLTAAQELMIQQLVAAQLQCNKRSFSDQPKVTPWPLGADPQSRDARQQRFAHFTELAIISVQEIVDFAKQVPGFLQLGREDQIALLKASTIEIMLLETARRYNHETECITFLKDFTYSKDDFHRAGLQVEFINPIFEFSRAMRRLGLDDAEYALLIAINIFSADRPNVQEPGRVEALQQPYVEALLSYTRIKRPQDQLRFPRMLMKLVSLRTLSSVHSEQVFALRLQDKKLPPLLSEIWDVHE

[3] = Luminescence-based cell-based high throughput dose response assay to identify activators of the DAF-12 from the parasite S. stercoralis (ssDAF-12).; assay type: functional
[4] = viability loss in HEK293 cells – cell-based, plate reader, cherry-picked samples, cytotoxicity control, dose response (AID 743446); assay type: functional
[5] = blockers of bursicon-stimulated LGR2 cAMP reporter – cell-based, HEK293, CRE-luciferase reporter, cherry pick, set 2, dose response (AID 743343); assay type: functional;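 note: transfected cells were stimulated with diluted bursicon conditioned medium after compound addition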
[6] = test system: HEK293; test: EBV LMP1 TES2 canonical NF-kB signalling blockers – cell-based, HEK293, luciferase, cherry-pick, dose response (AID 588343); assay type: functional; settings: Homo sapiens
[7] = A549 cell cytotoxicity, dose response, cytotoxicity control, plate reader, cherry-pick, antagonist series (AID 743412); assay type: functional, cell-based
[8] = target: Paired box protein Pax-8 (Homo sapiens, UniProt Q06710); test: PAX8 transcriptional activity inhibition in RMG-I – RMG-I cells, luciferase, cherry-pick, dose response (AID 687027); assay type: functional, cell-based;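 note: luciferase reporter driven by Pax8 target thyroperoxidase promoter measured by SteadyGlo luminescence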
Paired box protein Pax-8, sequence (Q06710 whole entry): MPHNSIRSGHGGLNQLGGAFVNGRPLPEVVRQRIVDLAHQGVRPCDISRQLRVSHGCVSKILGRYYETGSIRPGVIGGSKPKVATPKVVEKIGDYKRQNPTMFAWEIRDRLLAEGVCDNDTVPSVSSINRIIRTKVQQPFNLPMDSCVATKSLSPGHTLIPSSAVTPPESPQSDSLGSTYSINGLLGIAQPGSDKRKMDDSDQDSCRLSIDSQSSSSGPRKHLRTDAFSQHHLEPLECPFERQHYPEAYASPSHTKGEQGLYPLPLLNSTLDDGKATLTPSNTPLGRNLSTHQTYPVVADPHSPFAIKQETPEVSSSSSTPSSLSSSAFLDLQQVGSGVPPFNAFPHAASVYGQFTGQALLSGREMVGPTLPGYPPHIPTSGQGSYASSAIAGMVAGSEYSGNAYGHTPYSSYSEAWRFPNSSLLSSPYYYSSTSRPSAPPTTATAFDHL

[9] = blockade of melanocortin 4 receptor signaling – cell-based, plate reader, cherry pick, counter-screen for LGR2 antagonist project, dose response (AID 743444); assay type: functional;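 note: transfected HEK 293 cells stimulated with alpha-MSH peptide; potency of inhibitors of the alpha-MSH evoked signal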
[10] = cells; assay type: functional, cell-based; settings: HEK-CNG
[11] = target: T2, Galanin receptor type 3 (Homo sapiens, UniProt O60755); test: Fluorescence-based cell-based primary high throughput dose response assay to identify antagonists of the Galanin Receptor 3 (GalR3).; assay type: functional
T2 sequence (O60755 whole entry): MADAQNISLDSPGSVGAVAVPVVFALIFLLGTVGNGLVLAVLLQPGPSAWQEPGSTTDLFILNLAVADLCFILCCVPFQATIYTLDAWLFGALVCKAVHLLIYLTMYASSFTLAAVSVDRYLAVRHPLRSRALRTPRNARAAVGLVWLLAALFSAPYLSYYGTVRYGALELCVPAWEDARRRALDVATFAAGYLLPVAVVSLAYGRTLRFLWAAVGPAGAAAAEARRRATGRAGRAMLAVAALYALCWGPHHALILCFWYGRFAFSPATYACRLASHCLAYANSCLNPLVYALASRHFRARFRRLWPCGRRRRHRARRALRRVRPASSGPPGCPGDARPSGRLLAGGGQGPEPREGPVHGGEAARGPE

[12] = target: T3, Adenosylmethionine-8-amino-7-oxononanoate aminotransferase (Mycobacterium tuberculosis, UniProt P9WQ81); test: Mycobacterium tuberculosis BioA enzyme inhibitor Measured in Biochemical System Using Plate Reader - 2163-02_Inhibitor_Dose_CherryPick_Activity.; assay type: functional, Mycobacterium tuberculosis UT205
T3 sequence (P9WQ81 whole entry): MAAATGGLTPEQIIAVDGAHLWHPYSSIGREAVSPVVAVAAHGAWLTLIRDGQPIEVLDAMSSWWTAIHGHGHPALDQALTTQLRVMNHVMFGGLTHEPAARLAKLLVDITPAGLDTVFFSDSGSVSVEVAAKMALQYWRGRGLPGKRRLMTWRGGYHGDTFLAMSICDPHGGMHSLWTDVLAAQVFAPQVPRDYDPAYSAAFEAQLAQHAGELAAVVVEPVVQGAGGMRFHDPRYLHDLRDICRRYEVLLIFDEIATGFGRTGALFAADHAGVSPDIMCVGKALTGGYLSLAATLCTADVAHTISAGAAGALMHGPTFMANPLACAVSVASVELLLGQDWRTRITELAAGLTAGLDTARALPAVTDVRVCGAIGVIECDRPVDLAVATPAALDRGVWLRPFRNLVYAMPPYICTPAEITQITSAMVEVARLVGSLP

[13] = target: Luciferin 4-monooxygenase (Photinus pyralis, UniProt P08659); test: inhibition of purified Photinus pyralis luciferase – biochemical, luminescence, dose response (AID 1891)
Luciferin 4-monooxygenase, sequence (P08659 whole entry): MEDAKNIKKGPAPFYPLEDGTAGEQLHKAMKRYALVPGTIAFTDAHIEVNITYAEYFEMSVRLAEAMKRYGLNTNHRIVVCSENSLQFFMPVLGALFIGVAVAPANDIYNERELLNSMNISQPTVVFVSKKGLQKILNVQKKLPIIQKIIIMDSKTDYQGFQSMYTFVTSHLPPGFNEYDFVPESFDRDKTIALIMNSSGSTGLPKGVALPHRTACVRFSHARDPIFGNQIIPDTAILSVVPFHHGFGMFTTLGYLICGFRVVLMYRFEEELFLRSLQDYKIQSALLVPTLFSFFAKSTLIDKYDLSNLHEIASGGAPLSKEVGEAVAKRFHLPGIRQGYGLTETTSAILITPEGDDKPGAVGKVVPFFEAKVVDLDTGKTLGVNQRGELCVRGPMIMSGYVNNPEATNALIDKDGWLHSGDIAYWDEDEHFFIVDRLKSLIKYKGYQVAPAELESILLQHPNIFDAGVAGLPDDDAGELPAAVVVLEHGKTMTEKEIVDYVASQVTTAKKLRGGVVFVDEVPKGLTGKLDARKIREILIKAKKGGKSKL

[14] = Luminescence Cell-Based Dose Confirmation HTS to Identify Inhibitors of Platelet Dense Granule Release. [Related pubchem assays: 1663 (Primary HTS), 1678 (Summary of Project)]; assay type: functional
[15] = target: T4, CAAX prenyl protease 2 (Saccharomyces cerevisiae S288c, UniProt Q03530); assay type: biochemical
T4 sequence (Q03530 whole entry): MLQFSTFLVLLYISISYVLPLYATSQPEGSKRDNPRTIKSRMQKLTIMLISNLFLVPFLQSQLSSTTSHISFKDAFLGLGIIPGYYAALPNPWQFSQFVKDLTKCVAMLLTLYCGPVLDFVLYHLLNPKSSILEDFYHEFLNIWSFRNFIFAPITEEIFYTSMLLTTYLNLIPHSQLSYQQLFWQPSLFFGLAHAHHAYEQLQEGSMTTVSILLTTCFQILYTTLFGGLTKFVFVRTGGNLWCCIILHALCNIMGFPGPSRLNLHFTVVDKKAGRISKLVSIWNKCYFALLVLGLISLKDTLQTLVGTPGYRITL

[16] = cells; assay type: functional
[17] = cells; assay type: functional, cell-based
[18] = NIH-3T3 fibroblast cytotoxicity, dose response, cytotoxicity control, cell-based, fluorescence, Alamar Blue, secondary assay (AID 2327); assay type: functional;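 note: NIH-3T3 mouse fibroblasts cultured with fluconazole at 8 µg/mL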
[19] = cells; assay type: functional, cell-based; remark: listed apart in the source
[20] = fluconazole-exposed Candida albicans growth modulators – fluorescence, retest, confirmation (AID 2467); assay type: functional, cell-based
[21] = target: T5, Protein RecA (Mycobacterium tuberculosis, UniProt P9WHJ3); test: Fluorescence Cell-Free Homogeneous Dose Retest to Identify Inhibitors of RecA-Intein Splicing Activity. [Related pubchem assays (depositor defined):AID2097, AID2223, AID489010, AID492950]; assay type: functional
T5 sequence (P9WHJ3 whole entry): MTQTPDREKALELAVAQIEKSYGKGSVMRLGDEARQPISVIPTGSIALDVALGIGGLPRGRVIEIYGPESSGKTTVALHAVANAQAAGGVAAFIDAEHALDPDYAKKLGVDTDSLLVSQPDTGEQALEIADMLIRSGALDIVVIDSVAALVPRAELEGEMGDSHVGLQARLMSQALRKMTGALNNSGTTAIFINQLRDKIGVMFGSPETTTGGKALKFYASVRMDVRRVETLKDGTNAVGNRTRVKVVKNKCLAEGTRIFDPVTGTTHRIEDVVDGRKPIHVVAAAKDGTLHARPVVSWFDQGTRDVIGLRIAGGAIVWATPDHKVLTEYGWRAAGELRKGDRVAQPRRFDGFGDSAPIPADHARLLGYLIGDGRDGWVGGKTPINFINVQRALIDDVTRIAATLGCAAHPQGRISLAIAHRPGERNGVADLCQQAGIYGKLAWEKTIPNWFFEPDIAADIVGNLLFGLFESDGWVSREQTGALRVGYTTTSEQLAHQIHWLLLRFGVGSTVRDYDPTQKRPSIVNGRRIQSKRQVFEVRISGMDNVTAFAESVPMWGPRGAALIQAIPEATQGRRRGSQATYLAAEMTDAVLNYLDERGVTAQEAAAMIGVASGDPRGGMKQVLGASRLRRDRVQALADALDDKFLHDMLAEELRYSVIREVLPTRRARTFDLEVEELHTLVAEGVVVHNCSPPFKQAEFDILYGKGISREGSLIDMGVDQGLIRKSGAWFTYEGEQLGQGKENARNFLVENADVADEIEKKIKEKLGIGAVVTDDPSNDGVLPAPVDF

[22] = target: T6, Replicative DNA helicase DnaB (Mycobacterium tuberculosis, UniProt P9WMR3); test: DnaB intein splicing inhibitors, dose response, biochemical, cell-free fluorescence (AID 449749); assay type: functional
T6 sequence (P9WMR3 whole entry): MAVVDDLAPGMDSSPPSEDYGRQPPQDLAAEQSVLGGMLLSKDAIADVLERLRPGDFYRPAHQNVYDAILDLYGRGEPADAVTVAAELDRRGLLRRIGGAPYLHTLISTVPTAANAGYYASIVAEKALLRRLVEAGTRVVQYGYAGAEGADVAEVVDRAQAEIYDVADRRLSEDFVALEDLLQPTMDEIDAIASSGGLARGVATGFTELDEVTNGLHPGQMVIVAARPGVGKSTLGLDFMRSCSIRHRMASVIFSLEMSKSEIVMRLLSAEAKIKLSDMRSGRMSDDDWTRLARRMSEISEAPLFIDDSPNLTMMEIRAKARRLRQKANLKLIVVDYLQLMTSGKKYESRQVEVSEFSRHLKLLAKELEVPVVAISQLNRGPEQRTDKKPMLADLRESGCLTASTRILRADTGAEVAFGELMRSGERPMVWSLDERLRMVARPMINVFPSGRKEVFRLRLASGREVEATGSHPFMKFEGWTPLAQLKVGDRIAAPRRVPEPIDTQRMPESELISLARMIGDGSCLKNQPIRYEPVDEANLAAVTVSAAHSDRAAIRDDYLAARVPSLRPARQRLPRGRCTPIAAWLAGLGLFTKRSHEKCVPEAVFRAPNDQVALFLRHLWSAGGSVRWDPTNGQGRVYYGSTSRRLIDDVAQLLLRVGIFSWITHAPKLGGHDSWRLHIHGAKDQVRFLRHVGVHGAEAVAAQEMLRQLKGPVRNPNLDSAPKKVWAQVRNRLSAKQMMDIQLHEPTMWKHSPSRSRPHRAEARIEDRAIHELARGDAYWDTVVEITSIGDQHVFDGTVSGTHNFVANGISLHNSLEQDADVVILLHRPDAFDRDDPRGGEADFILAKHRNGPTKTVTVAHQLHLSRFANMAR

[23] = toxicity toward HepG2 liver cells – cell-based, plate reader, cherry-pick, antagonist series, cytotoxicity control, dose response (AID 743416); assay type: functional
[24] = target: Major prion protein (Homo sapiens, UniProt P04156); assay type: functional, cell-based

Which EC50 [1] does the source give for `Nc1ccccc1-n1nc2ccc3ccccc3c2n1` here?
The EC50 was > 67.5 µM (inactive).

What about the EC50 [2] of the same compound?
The EC50 was > 67.5 µM (inactive).

What about the IC50 [3] of the same compound?
Its IC50 is > 67.5 µM (inactive).

Which AC50 [4] does the source give for `COc1ccc(-c2csc3ncnc(Sc4nnnn4C)c23)cc1` here?
The AC50 was 19.8 µM (active).

What about the AC50 [5] of the same compound?
The AC50 was 17.8 µM (active).

And the AC50 [6]?
The AC50 was 8.04 µM (active).

And the AC50 [7]?
Its AC50 is 26.8 µM (active).

What about the AC50 [8] of the same compound?
Its AC50 is 4.92 µM (active).

And the AC50 [9]?
The AC50 was 20.8 µM (active).

Which results are given for `O=C(NCCO)c1nsnc1NCCCl`?
EC50 [10]: > 29.9 µM (inactive); IC50 [11]: > 29.9 µM (inactive)

With `Cc1ccc(-c2nnc(N3CCN(C(=O)CSc4nc[nH]n4)CC3)c3ccccc23)cc1` as the compound, how does the AC50 [12] read?
The AC50 was 1.07 µM (active).

What does the source list for `COc1ccc(C2CC(=O)Nc3sc(=N)c4c(N)c(C#N)c(N)nc4c32)cc1OC` (stereo not drawn)?
EC50 [13]: > 112 µM (not active); EC50 [14]: 0.706 µM (active); EC50 [10]: > 29.9 µM (inactive); IC50 [11]: 2.28 µM (active)

For `CCOc1ccc(-c2c(C(=O)N/N=C/c3cccs3)nnn2-c2nonc2N)cc1`, which AC50 [15] is on record?
The AC50 was 5.5 µM (active).

For `CC(Oc1ccc2ccc(=O)oc2c1)C(=O)N1CCOCC1` (stereo not drawn), which AC50 [12] is on record?
Its AC50 is 6.85 µM (active).

Which IC50 [16] does the source give for `O=C(COc1ccc2ccccc2c1)Nc1ccncc1` here?
Its IC50 is 6.95 µM (active).

And the EC50 [10]?
Its EC50 is > 29.9 µM (inactive).

What about the IC50 [11] of the same compound?
Its IC50 is 1.77 µM (active).

For `CCN(CC)c1ccc(/C=N/Nc2nc(C)cc(O)n2)c(O)c1`, which EC50 [17] is on record?
The EC50 was 6.92 µM (active).

What about the EC50 [18] of the same compound?
Its EC50 is 3.13 µM (active).

And the EC50 [19]?
Its EC50 is > 350 µM (not active).

What about the EC50 [20] of the same compound?
Its EC50 is 1.09 µM (active).

What about the EC50 [21] of the same compound?
The EC50 was 28 µM (active).

What about the AC50 [22] of the same compound?
The AC50 was > 380 µM (inactive).

And the AC50 [6]?
The AC50 was 1.75 µM (active).

For `Cc1ccc(Cc2c(C)nc3nc(SCC(=O)NCCCN4CCCCC4)nn3c2C)cc1`, which AC50 [12] is on record?
The AC50 was 11.1 µM (active).

For `O=C(c1ccccc1F)N1CC[C@@H]2[C@H](CO)Nc3ccc(Br)cc3[C@@H]21`, which AC50 [12] is on record?
Its AC50 is 1.81 µM (active).

For `C[C@@H]1CN([C@H](C)CO)C(=O)CCCn2nncc2CO[C@H]1CN(C)C(=O)Nc1cccc2ccccc12`, which AC50 [23] is on record?
The AC50 was > 52 µM (inactive).

And the AC50 [9]?
The AC50 was 34.8 µM (active).

For `CC(Sc1ccc2ccccc2n1)C(=O)O` (stereo not drawn), which IC50 [24] is on record?
Its IC50 is 1.88 µM (active).
